Entries after “also recorded” stand apart in the source; their conditions may differ.
Key:
[1] = tested on: human platelets; assay: Confocal microscopy of platelets incubated with fluorescently labelled peptides; format: cell-based; conditions: live washed platelets, 10 µM FITC-labelled peptide, 15 minutes incubation, confocal imaging (Fig. SI_5)
Method: Fig. 3 A functionalised staple is required to induce peptide uptake into platelets. (A) Platelets were incubated with TAMRA labelled model peptides (10 μM final concentration) for 1 h (white), 2 h (grey) and 3 h incubation (black) and the percentage positive for TAMRA fluorescence was quantified using flow cytometry. (B) Peptides showing high uptake within the first hour were analysed during first 5 min following treatment. Changes in platelet-associated fluorescence were recorded in real time using flow cytometry. Unlabelled platelets were recorded for 30 s prior to addition of the given peptide. (C) Platelets were incubated with 10 μM of TAMRA-model peptides for 1 h prior to imaging by confocal microscopy. ^‡ […]
Peptide uptake experiments of the most permeable model peptides 5, 13–16 were repeated in the presence of platelet-rich plasma (PRP) to ensure realistic conditions (ESI, Fig. SI_2a ^†).
Figure SI_3. […]
Peptides were used to a final concentration of 10 µM. […] Images of TAMRA-labelled model peptide stained platelets were acquired after 1 h incubation1 using with excitation at 565 nm and emission was detected with a 560 -615 nm BP filter. […]
were acquired after 15 minutes incubation1 using excitation at 488 nm and emission was detected with […]

[2] = tested on: human platelets; conditions: PRP, 10 μM FITC-labelled peptide, 15, 30, 60 minutes, flow cytometry, average of two independent repeats (Fig. SI_2b)
Text: (1 picture or pasted object on this page, not shown here)

[3] = tested on: human platelets; assay: PS exposure (annexin-V binding) by flow cytometry; format: cell-based; conditions: washed human platelets, 10 μM, 37 °C, time course up to 3 h, flow cytometry (Fig. 5A)
Method: Platelet activation markers (% positive platelets) were investigated following 1 h of peptide treatment. […] CD63 binding.
1.1 Preparation of washed platelet suspension
Human blood was collected from healthy volunteers, who had not taken medication for two weeks,
following informed consent in accordance with the Declaration of Helsinki. Blood was collected into 11 mM sodium citrate and washed platelets were prepared as follows: Platelet-rich plasma (PRP) was obtained by centrifugation (240 g, 15 min). Prostaglandin E1 (PGE1, 2 µM) was added to prevent premature platelet activation, and the plasma was centrifuged at 640 g for 15 min. […]
Treated washed platelet suspensions (1x10^7/mL) were analysed by flow cytometry using a C6 Accuri Flow Cytometer (Beckton Dickinson, UK), in the presence or absence of Annexin-V-PE (BD Biosciences, UK), anti-PAC-1 (BD Biosciences), anti-CD62 (BD Pharmingen, UK), or anti-CD-63P (BD Pharmingen). […]
PS exposure was assessed after incubation of 50 µL of washed platelet suspensions at 37 °C in 445 µL of […]
under the protection from direct light and analysed by flow cytometry.
Platelet activation markers (PAC -1, CD62P and CD63 binding) were assessed after incubation of 3 µL of […]
antibody and the peptide (1.1 μL of 1 mM stock solution in DMSO) . The suspensions were analysed by […]

CC[C@H](C)[C@H](NC(C)=O)C(=O)N[C@@H](Cc1c[nH]c2ccccc12)C(=O)N[C@H](C(=O)N[C@@H](C)C(=O)N[C@@H](CCC(N)=O)C(=O)N[C@@H](CCC(=O)O)C(=O)N[C@@H](CC(C)C)C(=O)N[C@@H](CCCNC(=N)N)C(=O)N[C@H]1CCCn2cc(nn2)CCCc2cn(nn2)CCC[C@@H](C(=O)N[C@@H](Cc2ccccc2)C(=O)N[C@@H](CC(N)=O)C(=O)N[C@@H](C)C(=O)N[C@@H](Cc2ccc(O)cc2)C(=O)N[C@@H](Cc2ccc(O)cc2)C(=O)N[C@@H](C)C(=O)N[C@@H](CCCNC(=N)N)C(=O)N[C@@H](CCCNC(=N)N)C(N)=O)NC(=O)[C@H](CC(=O)O)NC(=O)CNC(=O)[C@H]([C@@H](C)CC)NC1=O)[C@@H](C)CC [peptide 18]
localisation / platelet permeability of FITC-labelled Bim BH3 peptide [1]: poor membrane permeability; also recorded: forming aggregates outside the platelet cytosol; also recorded: form fluorescent aggregates outside the platelets
platelet fluorescence of FITC-labelled Bim BH3 peptide in plasma [2]: high platelet fluorescence in plasma
PS exposure / annexin-V binding (in words) [3]: No annexin-V binding was observed
